Results from patent EP0199291A1 (priority 1985, dated 1986).
Where two headings read alike, the source gives them in different places.

Columns and labels:
TNP-C3H = settings: for cytotoxische Aktivität (% 51Cr-Freisetzung): Stimulans und Target TNP-C3H, 1 x 10^-2 mol/l, 5 days
Experimental: (§1) 20 Millionen Responderzellen (üblicherweise C3H Milzzellen)wurden mit 1×10^6 bestrahlten (1500 rad) allogenen oder trinitrophenylierten syngenen Stimulatorzellen in einem Gesamtvolumen von 4,5 ml Kulturmedium (RPMI 1640, GIBCO Medium supplementiert mit 10mM L-Gutamin (GIBCO), Streptomycin/Penicillin (GIBCO), Streptomycin/ Penicillin (GIBCO; 100 units/ml), 0,5 % HEPES (GIBCO), 10% fötalem Kälberserum (GIBCO) und 3×10^-5 Mol/l 2-Mercaptoäthanol) 5 Tage bei 37°C in 5% CO2 incubiert. Responder-und Stimulatorzellen waren Milzzellen.
(§2) Die Kulturen wurden nach 5 Tagen auf cytotoxische Aktivität gegen Con A-aktivierte allogene oder trinitrophenylierte syngene Milzlynphoblasten in einem 4-Stunden 51Cr-Release assay in bekanntem Weise getestet.
(§3) Der Effekt in vitro (mittlere und rechte Zeichnung der Fig. 1) wurde wie folgt bestimmt: • C3H Milzzellen (2 x 10^7) wurden mit 1 x 10^6 bestrahlten und Trinitrophenylen-behandelten C3H Milzzellen (Mitte) oder 1 x 10^6 bestrahlte C57BL/6 Milzzellen (rechts) und mit den angegebenen Endkonzentrationen von Ornithin in 4,5 ml Kulturen 5 Tage inkubiert. Die cytotoxische Aktivität gegen die entsprechenden Targetzellen wurde nach 5 Tagen getestet.
(§4) C3H Milzzellen (2 x 10^7) wurden mit 1 x 10^6 bestrahlten und Trinitrophenylen-behandelten C3H Milzzellen (links) oder 1 x 10^6 bestrahlten C57BL/6 Milzzellen (rechts) in 4,5 ml Kulturen 5 Tage inkubiert. […] Die Abszisse zeigt die Endkonzentration von Ornithin in der Kultur. Die cytotoxische Aktivität gegen die entsprechenden Targetze1len wurde nach 5 Tagen bei Angreifer: Ziel-Zellen-Verhältnissen von 25:1, 5:1 und 1:1 untersucht. Figur 3 zeigt die relative cytotoxische Aktivität beim Angreifer: Ziel-Zellen-Verhältnis 25:1. (Die Kontrollantwort ohne Ornithin zeigte 54% (links) bzw. 50% (rechts) ^51Cr-release).
(§5) Die Ergebnisse geben die cytotoxische Aktivität (% ^51Cr-Freisetzung) gegen homologe Targetzellen nach 5 Tagen bei Angreifer:Targetzel len-Verältnissen von 25:1, 5:1 und 1:1 an.

C57BL/6 = settings: Stimulans und Target C57BL/6, 1 x 10^-2 mol/l, 5 days
Experimental: as §1, §2, §3, §4, §5

[1] = test system: con-A-aktivierte C3H Milzzellen; settings: 9 x 10^-3 mol/l; Con A 5 µg/ml; 24 h (Fig. 5)
Experimental: (§6) Die IL 2 Titer wurden mit der IL 2 abhängigen W-2 T-Zelllinie in bekannter Weise bestimmt.
(§7) Die resultierenden Überstände wurden dann durch Zentrifugation isoliert und auf Interleukin-2 und Interferon- Aktivität getestet, wie im Methodenteil beschrieben.
Ansteigende Konzentrationen von Ornithin wurden Kulturen von con-A-aktivierten Konzentrationen von Ornithin C3H Milzzellen (10^7 Zellen + 5 µg con-A pro ml) zugesetzt. Die erhaltenen Überstände wurden 24 h später isoliert und auf Interleukin-2 und Interferonaktivität getestet.

[2] = test system: IL 2 abhängige W-2 T-Zelllinie; settings: control solutions with increasing amounts in culture medium
Experimental: as §6
Ansteigende Konzentrationen von Ornithin wurden Kulturen von con-A-aktivierten Konzentrationen von Ornithin C3H Milzzellen (10^7 Zellen + 5 µg con-A pro ml) zugesetzt. Die erhaltenen Überstände wurden 24 h später isoliert und auf Interleukin-2 und Interferonaktivität getestet. […] C3H Milzzellkulturen mit l ug/ml con-A sowie allogene "Genischte-Lymphozyten-Kulturen" mit 10^7 nicht-bestrahltenC3H Milzzellen' plus 10^7 nicht- bestrahltenC57BL/6 Milzzellen wurden eben- falls mit steigenden Konzentrationen von Ornithin angesetzt.

[3] = test system: PMA-aktivierte EL-4 Thymomzellen; settings: same concentrations as in Fig. 5
Experimental: as §6
Die Überstände werden aus einer IL-2 produzierenden EL-4 Thymom-Sublinie nach Induktion mit Phorbolmyristinacetat (PMA) in bekannter Weise erhalten. Es wurden 10^6 EL-4 Zellen pro ml zusammen mit 10 ng/ml PMA (SIGMA) 48 h inkubiert. Die Überstände wurden gesammelt und bei -20°C gefroren gelagert.
as §7

[4] = Angreifer:Targetzellen 1:1, control without additive 16,3
[5] = Angreifer:Targetzellen 5:1, control without additive 32,0
[6] = Angreifer:Targetzellen 25:1, control without additive 54,9
[7] = summary statement, see Tabelle I
[8] = Angreifer:Targetzellen 1:1, control without additive 4,8
[9] = Angreifer:Targetzellen 5:1, control without additive 17,7
[10] = Angreifer:Targetzellen 25:1, control without additive 33,5

Row | Structure (SMILES) | Hemmwirkung auf die Aktivierung cytotoxischer T-Lymphozyten (TNP-C3H) | cytotoxische Aktivität (% 51Cr-Freisetzung) (TNP-C3H; [4]) | cytotoxische Aktivität (% 51Cr-Freisetzung) (TNP-C3H; [5]) | cytotoxische Aktivität (% 51Cr-Freisetzung) (TNP-C3H; [6]) | Hemmwirkung auf die Aktivierung cytotoxischer T-Lymphozyten (TNP-C3H; [7]) | cytotoxische Aktivität (% 51Cr-Freisetzung) (C57BL/6; [8]) | cytotoxische Aktivität (% 51Cr-Freisetzung) (C57BL/6; [9]) | cytotoxische Aktivität (% 51Cr-Freisetzung) (C57BL/6; [10]) | other results
1 | C[C@H](N)C(=O)O [L-Alanin] | nicht zu beobachten | – | – | – | – | – | – | – | –
2 | N[C@@H](Cc1c[nH]cn1)C(=O)O [L-Hystidin, L-Histidin] | – | 11,1% | 27,8% | 48,5% | nicht zu beobachten | 5,1% | 11,4% | 24,5% | –
3 | NCCCC[C@H](N)C(=O)O [L-Lysin] | – | 21,5% | 39,9% | 60,7% | nicht zu beobachten | 9,0% | 19,1% | 41,7% | –
4 | NCCC[C@H](N)C(=O)O [L-Ornithin] | – | – | – | – | – | – | – | – | Effekt auf die Produktion von IL-2 [1]: keinen wesentlichen Effekt; Interleukin-2-Aktivität (of the substance itself) [2]: keine Interleukin-2 oder Interferon-Aktivität; Interleukin-2-Produktion von PMA-aktivierten EL-4 Thymomzellen [3]: nicht supprimiert
5 | NCCCCN [Putrescin] | nicht zu beobachten | – | – | – | – | – | – | – | –
